Drawing on ChEMBL document CHEMBL4819072, “Radioligand and computational insight in structure - Activity relationship of saccharin derivatives being ipsapirone and revospirone analogues” (Bioorg Med Chem Lett, 2021), this text covers Ki for three compounds.

The structures appear in SMILES notation.

As usually defined, the Ki is the dissociation constant of the complex between target and ligand, obtained from inhibition or displacement. A higher Ki goes with a looser hold on the target.

Experiment [1] has as its target T1, 5-hydroxytryptamine receptor 1A (Homo sapiens, UniProt P08908).
T1 sequence (P08908 whole entry): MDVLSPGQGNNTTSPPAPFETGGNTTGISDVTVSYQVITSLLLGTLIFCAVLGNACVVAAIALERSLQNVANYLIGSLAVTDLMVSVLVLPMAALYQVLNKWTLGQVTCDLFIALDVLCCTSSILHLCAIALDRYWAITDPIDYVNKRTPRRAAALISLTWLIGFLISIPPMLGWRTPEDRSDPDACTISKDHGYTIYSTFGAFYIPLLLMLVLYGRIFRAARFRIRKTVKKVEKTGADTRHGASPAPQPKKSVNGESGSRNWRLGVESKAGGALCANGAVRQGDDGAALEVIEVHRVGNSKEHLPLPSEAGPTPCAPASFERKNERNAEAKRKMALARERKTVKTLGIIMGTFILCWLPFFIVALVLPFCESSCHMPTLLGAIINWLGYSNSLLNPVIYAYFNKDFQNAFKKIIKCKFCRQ
Put plainly: Displacement of [3H]-[…] from human 5-HT1AR expressed in human HEK293 cells. Format: cell-based. (Loss of bound radioactivity is the signal in a displacement assay; it reports binding, not function.)

For experiment [2], the target named is T2, Adrenergic receptor alpha-1 (Homo sapiens, UniProt P35348+P25100+P35368).
T2 sequence (P35348 whole entry): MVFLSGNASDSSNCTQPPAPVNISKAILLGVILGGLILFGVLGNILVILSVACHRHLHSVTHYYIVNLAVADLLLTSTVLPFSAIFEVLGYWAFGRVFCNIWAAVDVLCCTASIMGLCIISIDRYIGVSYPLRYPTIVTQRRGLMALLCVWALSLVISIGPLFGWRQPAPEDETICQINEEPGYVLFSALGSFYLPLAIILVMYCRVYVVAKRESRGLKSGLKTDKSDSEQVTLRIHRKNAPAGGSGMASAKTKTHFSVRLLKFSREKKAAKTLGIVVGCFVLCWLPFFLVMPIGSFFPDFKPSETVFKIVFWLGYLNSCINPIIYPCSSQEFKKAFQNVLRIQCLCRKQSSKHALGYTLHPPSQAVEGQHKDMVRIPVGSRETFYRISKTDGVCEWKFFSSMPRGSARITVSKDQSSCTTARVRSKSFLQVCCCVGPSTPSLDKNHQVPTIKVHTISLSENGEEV
T2 sequence (P25100 whole entry): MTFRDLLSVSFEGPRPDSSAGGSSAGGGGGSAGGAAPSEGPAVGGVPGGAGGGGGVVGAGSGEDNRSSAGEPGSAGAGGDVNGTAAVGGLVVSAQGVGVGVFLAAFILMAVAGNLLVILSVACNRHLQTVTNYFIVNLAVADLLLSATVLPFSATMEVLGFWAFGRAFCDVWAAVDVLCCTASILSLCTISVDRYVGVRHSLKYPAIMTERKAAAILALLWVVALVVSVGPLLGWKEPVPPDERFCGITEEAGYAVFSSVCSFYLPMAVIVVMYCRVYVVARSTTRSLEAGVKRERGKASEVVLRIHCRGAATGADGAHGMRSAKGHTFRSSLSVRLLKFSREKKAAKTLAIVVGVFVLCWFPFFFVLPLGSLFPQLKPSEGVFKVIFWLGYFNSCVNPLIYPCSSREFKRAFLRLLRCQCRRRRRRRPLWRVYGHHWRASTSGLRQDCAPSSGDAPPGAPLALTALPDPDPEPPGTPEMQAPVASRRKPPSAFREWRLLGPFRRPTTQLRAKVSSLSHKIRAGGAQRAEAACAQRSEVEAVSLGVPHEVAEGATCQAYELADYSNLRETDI
T2 sequence (P35368 whole entry): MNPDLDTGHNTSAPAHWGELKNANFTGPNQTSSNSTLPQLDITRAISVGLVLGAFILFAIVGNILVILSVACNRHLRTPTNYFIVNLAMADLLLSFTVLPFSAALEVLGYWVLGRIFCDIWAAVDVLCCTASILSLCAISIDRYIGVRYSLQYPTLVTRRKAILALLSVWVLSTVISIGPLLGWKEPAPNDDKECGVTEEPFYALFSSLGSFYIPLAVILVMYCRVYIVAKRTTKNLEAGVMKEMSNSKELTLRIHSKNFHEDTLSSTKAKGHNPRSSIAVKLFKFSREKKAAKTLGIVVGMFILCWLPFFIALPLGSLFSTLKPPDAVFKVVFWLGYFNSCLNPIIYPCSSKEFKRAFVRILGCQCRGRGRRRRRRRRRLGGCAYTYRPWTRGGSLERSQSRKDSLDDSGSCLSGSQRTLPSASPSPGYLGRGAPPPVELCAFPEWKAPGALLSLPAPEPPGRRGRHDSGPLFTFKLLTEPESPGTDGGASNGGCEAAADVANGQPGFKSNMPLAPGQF
Nature of the experiment: Binding affinity to human adrenergic receptor alpha1. Format: protein assay.

The next experiment addresses T3, D(4) dopamine receptor (Homo sapiens, UniProt P21917).
T3 sequence (P21917 whole entry): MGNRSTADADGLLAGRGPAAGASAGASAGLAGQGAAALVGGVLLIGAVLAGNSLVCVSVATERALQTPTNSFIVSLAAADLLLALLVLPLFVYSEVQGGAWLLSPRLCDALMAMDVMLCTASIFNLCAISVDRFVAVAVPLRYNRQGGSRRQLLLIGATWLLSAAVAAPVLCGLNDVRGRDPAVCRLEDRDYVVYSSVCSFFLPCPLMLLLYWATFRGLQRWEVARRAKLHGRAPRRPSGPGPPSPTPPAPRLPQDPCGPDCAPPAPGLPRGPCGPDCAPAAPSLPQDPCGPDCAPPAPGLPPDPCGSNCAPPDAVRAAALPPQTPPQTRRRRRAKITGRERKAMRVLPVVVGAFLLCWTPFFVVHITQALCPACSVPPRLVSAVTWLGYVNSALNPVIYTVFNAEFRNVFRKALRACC
Nature of the experiment: Binding affinity to human D4R.

Experiment [3] has as its target 5-hydroxytryptamine receptor 2A (Homo sapiens, UniProt P28223). Put plainly: Displacement of [3H]-ketanserin from human 5-HT2AR expressed in CHO cells. It is filed as cell-based.
Experiment [4] deals with T4, 5-hydroxytryptamine receptor 2C (Homo sapiens, UniProt P28335).
T4 sequence (P28335 whole entry): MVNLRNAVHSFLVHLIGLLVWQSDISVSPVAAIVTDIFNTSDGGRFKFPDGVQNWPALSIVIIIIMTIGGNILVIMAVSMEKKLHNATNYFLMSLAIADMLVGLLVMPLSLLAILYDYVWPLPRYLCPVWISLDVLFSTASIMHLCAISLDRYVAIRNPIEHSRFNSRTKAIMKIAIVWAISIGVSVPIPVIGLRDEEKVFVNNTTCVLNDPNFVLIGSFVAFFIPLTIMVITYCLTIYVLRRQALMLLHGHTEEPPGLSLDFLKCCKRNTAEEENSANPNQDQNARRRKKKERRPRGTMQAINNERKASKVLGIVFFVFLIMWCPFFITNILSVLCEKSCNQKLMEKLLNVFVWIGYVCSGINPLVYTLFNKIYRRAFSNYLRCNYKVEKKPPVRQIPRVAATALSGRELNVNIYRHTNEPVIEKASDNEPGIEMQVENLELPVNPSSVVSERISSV
Nature of the experiment: Binding affinity to human 5-HT2C.

For a further experiment, the target named is D(1A) dopamine receptor (Homo sapiens, UniProt P21728). Nature of the experiment: Binding affinity to human D1R.
Chain of D(1A) dopamine receptor (P21728 whole entry): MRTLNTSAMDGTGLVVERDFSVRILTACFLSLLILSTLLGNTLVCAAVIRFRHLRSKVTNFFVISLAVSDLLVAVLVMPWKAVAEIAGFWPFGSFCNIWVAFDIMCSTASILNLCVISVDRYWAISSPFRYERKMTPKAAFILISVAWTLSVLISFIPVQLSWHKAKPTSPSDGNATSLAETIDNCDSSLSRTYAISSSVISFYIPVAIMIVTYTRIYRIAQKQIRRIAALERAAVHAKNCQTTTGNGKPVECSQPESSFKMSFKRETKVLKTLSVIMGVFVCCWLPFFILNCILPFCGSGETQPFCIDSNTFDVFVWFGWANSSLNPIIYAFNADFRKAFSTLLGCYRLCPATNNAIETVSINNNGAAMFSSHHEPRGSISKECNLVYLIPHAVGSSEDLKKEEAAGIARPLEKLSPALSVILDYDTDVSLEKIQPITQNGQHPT
Experiment [5] deals with T5, 5-hydroxytryptamine receptor 1A (Rattus norvegicus, UniProt P19327).
T5 sequence (P19327 whole entry): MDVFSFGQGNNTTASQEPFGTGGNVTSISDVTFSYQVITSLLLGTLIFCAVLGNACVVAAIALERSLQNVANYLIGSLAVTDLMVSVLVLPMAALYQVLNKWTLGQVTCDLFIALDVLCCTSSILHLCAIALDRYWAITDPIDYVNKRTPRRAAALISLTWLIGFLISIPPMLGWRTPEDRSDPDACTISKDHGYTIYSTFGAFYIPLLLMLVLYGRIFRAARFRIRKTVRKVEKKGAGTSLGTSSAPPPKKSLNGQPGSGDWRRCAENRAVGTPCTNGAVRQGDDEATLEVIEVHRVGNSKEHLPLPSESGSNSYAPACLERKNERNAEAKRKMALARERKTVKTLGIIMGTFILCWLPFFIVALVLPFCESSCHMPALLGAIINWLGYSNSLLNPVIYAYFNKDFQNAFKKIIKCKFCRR
Put plainly: Displacement of [3H]-[…] from Wistar rat frontal region 5-HT1AR incubated for 30 mins. It is filed as tissue-based, Frontal lobe.

The target in another experiment is D(2) dopamine receptor (Rattus norvegicus, UniProt P61169). Put plainly: Displacement of [3H]-spiperone from DRD2 in rat striatum incubated for 45 mins by liquid scintillation counting. Format: tissue-based.
Chain of D(2) dopamine receptor (P61169 whole entry): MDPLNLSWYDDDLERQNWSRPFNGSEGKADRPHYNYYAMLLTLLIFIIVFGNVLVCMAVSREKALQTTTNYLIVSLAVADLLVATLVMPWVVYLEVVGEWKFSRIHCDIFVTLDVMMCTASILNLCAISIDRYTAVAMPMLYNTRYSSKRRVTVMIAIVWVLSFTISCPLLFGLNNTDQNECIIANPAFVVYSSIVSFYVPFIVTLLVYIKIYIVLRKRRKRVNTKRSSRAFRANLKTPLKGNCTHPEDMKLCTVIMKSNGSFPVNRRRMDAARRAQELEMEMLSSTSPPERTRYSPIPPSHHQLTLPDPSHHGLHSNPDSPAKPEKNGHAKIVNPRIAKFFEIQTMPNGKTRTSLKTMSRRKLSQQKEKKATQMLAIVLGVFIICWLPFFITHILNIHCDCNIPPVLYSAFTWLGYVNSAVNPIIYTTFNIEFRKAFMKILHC
The target of experiment [6] is 5-hydroxytryptamine receptor 7 (Homo sapiens, UniProt P34969). Nature of the experiment: Displacement of [3H]-5CT from human 5-HT7R expressed in human HEK293 cells. Format: cell-based.
Chain of 5-hydroxytryptamine receptor 7 (P34969 whole entry): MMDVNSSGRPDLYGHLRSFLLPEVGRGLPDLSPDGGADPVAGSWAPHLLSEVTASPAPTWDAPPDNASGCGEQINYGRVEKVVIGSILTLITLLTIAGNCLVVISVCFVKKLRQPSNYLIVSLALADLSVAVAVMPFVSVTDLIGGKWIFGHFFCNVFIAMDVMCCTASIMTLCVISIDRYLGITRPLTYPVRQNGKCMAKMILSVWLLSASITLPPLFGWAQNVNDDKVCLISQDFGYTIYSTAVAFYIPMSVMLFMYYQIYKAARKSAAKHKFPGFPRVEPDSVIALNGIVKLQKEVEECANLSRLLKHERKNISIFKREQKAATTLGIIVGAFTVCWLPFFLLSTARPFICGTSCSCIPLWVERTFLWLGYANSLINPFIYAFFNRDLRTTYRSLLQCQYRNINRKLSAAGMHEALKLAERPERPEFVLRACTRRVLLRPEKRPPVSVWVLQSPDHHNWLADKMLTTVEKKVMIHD
In experiment [7] the target is 5-hydroxytryptamine receptor 6 (Homo sapiens, UniProt P50406). Put plainly: Displacement of [3H]-LSD from human 5-HT6R expressed in human HEK293 cells. It is filed as cell-based.
Chain of 5-hydroxytryptamine receptor 6 (P50406 whole entry): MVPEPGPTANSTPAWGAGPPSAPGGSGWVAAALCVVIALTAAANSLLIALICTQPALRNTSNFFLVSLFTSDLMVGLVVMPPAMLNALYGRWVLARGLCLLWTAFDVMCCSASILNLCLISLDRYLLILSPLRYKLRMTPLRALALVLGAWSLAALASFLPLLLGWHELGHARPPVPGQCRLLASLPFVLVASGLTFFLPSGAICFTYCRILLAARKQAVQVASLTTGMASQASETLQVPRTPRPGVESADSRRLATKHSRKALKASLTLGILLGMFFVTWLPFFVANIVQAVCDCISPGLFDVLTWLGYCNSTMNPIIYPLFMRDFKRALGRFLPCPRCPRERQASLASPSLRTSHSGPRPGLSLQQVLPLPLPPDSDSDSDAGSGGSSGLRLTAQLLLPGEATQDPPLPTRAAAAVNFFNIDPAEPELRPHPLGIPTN

Chain of 5-hydroxytryptamine receptor 2A (P28223 whole entry): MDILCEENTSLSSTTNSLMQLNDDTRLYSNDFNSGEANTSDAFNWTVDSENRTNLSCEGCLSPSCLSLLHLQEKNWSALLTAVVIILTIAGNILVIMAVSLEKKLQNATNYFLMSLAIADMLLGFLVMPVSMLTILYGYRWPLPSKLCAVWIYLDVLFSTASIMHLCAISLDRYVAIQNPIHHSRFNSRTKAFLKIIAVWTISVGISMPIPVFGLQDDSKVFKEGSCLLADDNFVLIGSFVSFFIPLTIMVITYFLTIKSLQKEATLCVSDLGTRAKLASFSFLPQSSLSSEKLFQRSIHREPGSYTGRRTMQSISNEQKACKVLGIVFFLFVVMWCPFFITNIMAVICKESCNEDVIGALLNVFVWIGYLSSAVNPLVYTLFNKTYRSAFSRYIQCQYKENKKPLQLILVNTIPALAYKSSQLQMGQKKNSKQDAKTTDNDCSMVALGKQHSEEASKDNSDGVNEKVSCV

For the compound `O=C1c2ccccc2S(=O)(=O)N1CCCCN1CCN(c2cccc(C(F)(F)F)c2)CC1`, the Ki is 0.1 µM in experiment [1]; 1.5 µM in experiment [2]; more than 5 µM at D(4) dopamine receptor; 2.25 µM in experiment [3]; more than 5 µM in [4]; more than 5 µM on D(1A) dopamine receptor. Moreover, the results for the Ki (in [5]; at D(2) dopamine receptor) were 0.1 µM and 2.25 µM, respectively.
Turning to `O=C1c2ccccc2S(=O)(=O)N1CCCN1CCN(c2cccc(C(F)(F)F)c2)CC1`, the Ki in experiment [1] is 0.4 µM; in experiment [3], 0.7 µM; in experiment [4], more than 5 µM.
Take `O=C1c2ccccc2S(=O)(=O)N1CCCCN1CCN(c2ncccn2)CC1` [IPSAPIRONE]: the Ki came to 0.0079 µM in experiment [1]; 1.41 µM in experiment [6]; 16.8 µM in [7]; 0.229 µM in [2]; 15 µM in [3].
